Measured values: patent US20140357512A1, “HISTONE DEACETYLASE (HDAC) BIOMARKERS IN MULTIPLE MYELOMA” (priority 2013, published 2014)

Tested on: human myeloma cell line MM.1S
Assay: SILAC acetylated-lysine peptide profiling, HDAC inhibitor vs DMSO (light/heavy ratio)
Assay type: cell-based
Excerpt: An embodiment of the invention comprises utilizing the SILAC method in order to quantitate changes in protein expression between two or more populations of cells. The SILAC method is a technique based on mass spectrometry that detects differences in protein abundance among samples using non-radioactive isotopic labeling. The SILAC method is known in the art, and described in detail in Ong et al., “Stable Isotope Labeling by Amino Acids in Cell Culture, SILAC, as a Simple and Accurate Approach to Expression Proteomics”, Molecular & Cellular Proteomics, vol. 1, pp. 376-386 (2002), which is incorporated herein by reference in its entirety.
Briefly, the SILAC method involves growing two populations of cells in cell culture. The first population of cells is grown in growth media containing normal amino acids (“normal media”). The second population of cells is grown in media lacking a standard essential amino acid (such as lysine), but is then supplemented with a non-radioactive, isotopically labeled form of that essential amino acid (such as lysine labeled with ^13C atoms, rather than normal ^12C atoms), which is called “heavy media”. When the two populations of cells are each growing in the medium, they incorporate the amino acids into all of their proteins. The growth of cells maintained in the heavy media is no different from that in normal media. All peptides containing the heavy amino acids are heavier than their normal counterparts. The cells from each of the two populations of cells are lysed. The lysates from each of the two cell populations are then combined. The combined cell lysates are then analyzed by mass spectrometry. Pairs of chemically identical peptides of different stable isotope composition can be differentiated in a mass spectrometer due to their difference in mass. The ratio of peak intensities in the mass spectrum for such peptide pairs reflects the abundance ratio for the two proteins.
This example describes SILAC studies that were performed to compare the effects of three different HDAC inhibitors (Compound A, Compound B, and tubastatin A) to a control on a human multiple myeloma cell line. The HDAC inhibitors were also compared amongst themselves to determine differences in their effects.
A human myeloma cell line MM.1S was grown using either ^12C (light) or ^13C (heavy) lysine containing culture medium. The “heavy” cells were treated with DMSO as the control, and the “light” cells were treated with a single HDAC inhibitor at 37° C. for 6 hours. The heavy and light cells were lysed, and the lysates were mixed in 1:1 ratio and digested with the protease trypsin. The acetylated lysine containing peptides (due to the action of the HDAC inhibitor) in the digested peptide pool were captured by a non-specific anti-acetylated lysine antibody cocktail (the antibodies identify both light and heavy acetylated peptides), and subjected to mass spectrometry analysis in order to identify thousands of individual peptides.
Thousands of peptides were identified in pairs (^12C and ^13C) due to their known mass differences. The amino acid sequence and quantitative ratio (Light/Heavy) of a given peptide in two differentially treated cell lysates were then determined and annotated with their possible protein (gene) sources.
As stated above, three HDAC inhibitors (Compound A, Compound B, and Tubastatin A) were used. Thus, the SILAC method was performed three times, with a different HDAC inhibitor compared to a control each time. Accordingly, there are three pairs of quantitative data in the table below, i.e., Compound A:DMSO, Compound B:DMSO, and Tubastatin A:DMSO. A cut-off of 1.30 fold of change (increase or decrease) was then used to determine “changed” or “+” in the table, and any peptides with a fold of change less than 1.3 fold were determined to be “unchanged” or “0” in the table. Those peptides that were not identified were marked as “NA” in the table. […]

## O=C(CCCCCCNC(=O)c1cnc(N(c2ccccc2)c2ccccc2)nc1)NO [Compound A, 2-(diphenylamino)-N-(7-(hydroxyamino)-7-oxoheptyl)pyrimidine-5-carboxamide]
SEQ ID NO: 696, Isoform Long of Delta-1-pyrroline-5-carboxylate synthase [68], ALDH18A1
  L/H ratio of acetylated peptide SELK(ac)HAK: 0.66 log 2
SEQ ID NO: 697, Isoform 5 of Transcriptional regulator ATRX [468], ATRX
  L/H ratio of acetylated peptide SCGLNPK(ac)LEK: 0.66 log 2
SEQ ID NO: 698, Isoform 1 of Adipocyte plasma membrane-associated protein [250], C20orf3
  L/H ratio of acetylated peptide EVK(ac)VLLDQLR: 0.67 log 2
SEQ ID NO: 699, Histone H2B type 2-F [21], HIST2H2BF
  L/H ratio of acetylated peptide KAVTK(ac)VQK: 0.67 log 2
SEQ ID NO: 700, Dihydrolipoyl dehydrogenase mitochondrial [267], DLD
  L/H ratio of acetylated peptide ILQK(ac)QGFK: 0.67 log 2
SEQ ID NO: 701, Trifunctional enzyme subunit alpha mitochondrial [353], HADHA
  L/H ratio of acetylated peptide NK(ac)FGAPQK: 0.68 log 2
SEQ ID NO: 702, Isocitrate dehydrogenase [NAD] subunit gamma mitochondrial [221], IDH3G
  L/H ratio of acetylated peptide VTAVHK(ac)ANIMK: 0.68 log 2
SEQ ID NO: 703, Protein FAM3C [67], FAM3C
  L/H ratio of acetylated peptide ACPEK(ac)HFAFK: 0.68 log 2
SEQ ID NO: 704, Estradiol 17-beta-dehydrogenase 12 [249], HSD17B12
  L/H ratio of acetylated peptide KPTLDK(ac)PSPETFVK: 0.68 log 2
SEQ ID NO: 705, Ubiquitin-60S ribosomal protein L40 [88], UBA52
  L/H ratio of acetylated peptide QLAQK(ac)YNCDK: 0.68 log 2
SEQ ID NO: 706, Isoform 1 of ATP synthase subunit d mitochondrial [95], ATP5H
  L/H ratio of acetylated peptide […](ac)EDVK: 0.68 log 2
SEQ ID NO: 707, Isoform 2 of PDZ domain-containing protein 2 [1726], PDZD2
  L/H ratio of acetylated peptide […](ac)TLSK: 0.69 log 2
SEQ ID NO: 708, ATP synthase subunit beta mitochondrial [522], ATP5B
  L/H ratio of acetylated peptide ADK(ac)LAEEHSS: 0.70 log 2
SEQ ID NO: 709, Superoxide dismutase [Mn] mitochondrial [130], SOD2
  L/H ratio of acetylated peptide DFGSFDK(ac)FK: 0.70 log 2
SEQ ID NO: 710, 60S ribosomal protein L13a [191], SNORD32A, RPL13A, SNORD33, SNORD34
  L/H ratio of acetylated peptide KIDK(ac)YTEVLK: 0.70 log 2
SEQ ID NO: 711, cDNA FLJ75110 highly similar to Homo sapiens PHD finger protein 15 (PHF15) mRNA 3[2:38], PHF15
  L/H ratio of acetylated peptide CSK(ac)LPSSTK(ac)SGWPR: 0.70 log 2
SEQ ID NO: 712, Histone H2B type 1-M [21], HIST1H2BM
  L/H ratio of acetylated peptide KAINK(ac)AQK: 0.70 log 2
SEQ ID NO: 713, Protein zer-1 homolog [584], ZER1
  L/H ratio of acetylated peptide EFPEK(ac)QELHR: 0.70 log 2
SEQ ID NO: 714, Putative annexin A2-like protein [157], ANXA2P2
  L/H ratio of acetylated peptide TDLEK(ac)[…]: 0.71 log 2
SEQ ID NO: 715, Putative annexin A2-like protein [115], ANXA2P2
  L/H ratio of acetylated peptide […](ac)ASMK: 0.72 log 2
SEQ ID NO: 716, Isoform 1 of Bromodomain-containing protein 1 [33]1, BRD1
  L/H ratio of acetylated peptide LTCYLCK(ac)QK: 0.72 log 2
SEQ ID NO: 717, Histone H2B type 1-M [21:24], HIST1H2BM
  L/H ratio of acetylated peptide AINK(ac)AQK(ac)K: 0.72 log 2
SEQ ID NO: 718, Malate dehydrogenase mitochondrial [301], MDH2
  L/H ratio of acetylated peptide KGIEK(ac)NLGIGK: 0.72 log 2
SEQ ID NO: 719, ATP synthase subunit alpha mitochondrial [305], ATP5A1
  L/H ratio of acetylated peptide DNGK(ac)[…]: 0.72 log 2
SEQ ID NO: 720, Putative ATP-dependent Clp protease proteolytic subunit mitochondrial [211], CLPP
  L/H ratio of acetylated peptide QLYNIYAK(ac)HTK: 0.72 log 2
SEQ ID NO: 721, 60 kDa heat shock protein mitochondrial [364], HSPD1
  L/H ratio of acetylated peptide GKGDK(ac)AQIEK: 0.73 log 2
SEQ ID NO: 722, 60S ribosomal protein L32 [76], RPL32
  L/H ratio of acetylated peptide K(ac)FLVHNVK: 0.73 log 2
SEQ ID NO: 723, 40S ribosomal protein S25 [98], RPS25
  L/H ratio of acetylated peptide GLIK(ac)LVSK: 0.73 log 2
SEQ ID NO: 724, Isoform Mitochondrial of Fumarate hydratase mitochondrial [292], FH
  L/H ratio of acetylated peptide IGFAEK(ac)VAAK: 0.73 log 2
SEQ ID NO: 725, four and a half LIM domains protein 1 isoform 5 [20], FHL1
  L/H ratio of acetylated peptide (ac)AEK(ac)FDCHYCR: 0.73 log 2
SEQ ID NO: 726, Endoplasmic reticulum resident protein 29 [48], ERP29
  L/H ratio of acetylated peptide […](ac)VIPK: 0.73 log 2
SEQ ID NO: 727, 60S ribosomal protein L7a [245], RPL7A, SNORD24
  L/H ratio of acetylated peptide […](ac)SVAR: 0.73 log 2
SEQ ID NO: 728, Branched-chain-amino-acid aminotransferase [281], BCAT2
  L/H ratio of acetylated peptide TITMK(ac)QLLR: 0.73 log 2
SEQ ID NO: 729, Endoplasmic reticulum resident protein 29 [54], ERP29
  L/H ratio of acetylated peptide SK(ac)FVLVK: 0.74 log 2
SEQ ID NO: 730, 39S ribosomal protein L9 mitochondrial [87], MRPL9
  L/H ratio of acetylated peptide LVEDTK(ac)HRPK: 0.74 log 2
